The values below come from patent US10774064B2 (Cadent Therapeutics, Inc., priority 2016, dated 2020).

In this test the target is T1, small-conductance Ca2+-activated K+ channels (SK channels, subtype 2) (Homo sapiens, UniProt Q9H2S1).
T1 construct: expressed in transfected cells; host or cells: HEK293
As to the kind of experiment: whole-cell patch-clamp of ionic current through SK2 channels in HEK293 cells (SC100). The class given is cell-based. Conditions: concentration that increases the basal current by 100%, HEK293 cells expressing SK2 channels; for SC100 (μM): whole-cell patch-clamp. The gist of the method:
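Whole-cell patch-clamp recording of current in HEK293 cells expressing SK2 channels. SC100 is the compound concentration that increases basal current by 100%.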
A general note: Patch clamp records ionic current or voltage across a cell membrane.

Regarding `Cc1cc(C)n(-c2nc(N[C@H]3CCCC(F)(F)C3)cc([C@H](C)O)n2)n1` [Compound 355, (−)-1-(6-(((S)-3,3-difluorocyclohexyl)amino)-2-(3,5-dimethyl-1H-pyrazol-1-yl)pyrimidin-4-yl)ethan-1-ol], the SC100 entry is listed as “+ (+ means >1 uM)”. Consider `Cc1cc(C)n(-c2nc(NC3CCCC(F)(F)C3)cc(C(C)(C)O)n2)n1` (stereo not shown) [Compound 356, 2-(6-((3,3-difluorocyclohexyl)amino)-2-(3,5-dimethyl-1H-pyrazol-1-yl)pyrimidin-4-yl)propan-2-ol], for which the SC100 entry was “+ (+ means >1 uM)”.

`Cc1cc(C)n(-c2nc(CO)cc(NC3CCCC(F)(F)C3)n2)n1` (stereo not shown) [Compound 357, (6-((3,3-difluorocyclohexyl)amino)-2-(3,5-dimethyl-1H-pyrazol-1-yl)pyrimidin-4-yl)methanol]: the SC100 entry is given as “+ (+ means >1 uM)”.

In the case of `Cc1cc(C)n(-c2nc(CF)cc(NC3CCCC(F)(F)C3)n2)n1` (stereo not shown) [Compound 358, N-(3,3-difluorocyclohexyl)-2-(3,5-dimethyl-1H-pyrazol-1-yl)-6-(fluoromethyl)pyrimidin-4-amine], the SC100 result is recorded as “+ (+ means >1 uM)”. Same read-out and setting: in the case of `COc1cc(NC2CCC(F)(F)CC2)nc(-n2nc(C)cc2C)n1` [Compound 360, N-(4,4-difluorocyclohexyl)-2-(3,5-dimethyl-1H-pyrazol-1-yl)-6-methoxypyrimidin-4-amine] it was “++ (++ means 200 nM-1000 nM)”.

For the compound `COc1cc(NC2CCC(F)(F)CC2)nc(-c2nc(C)cs2)n1` [Compound 361, N-(4,4-difluorocyclohexyl)-6-methoxy-2-(4-methylthiazol-2-yl)pyrimidin-4-amine], the SC100 entry was “++ (++ means 200 nM-1000 nM)”. On the same count and under the same terms, under `FC1(F)CCC(Nc2cc(N3CCOCC3)nc(-n3ccc(C4CC4)n3)n2)CC1` [Compound 365, 2-(3-cyclopropyl-1H-pyrazol-1-yl)-N-(4,4-difluorocyclohexyl)-6-morpholinopyrimidin-4-amine] stands “++ (++ means 200 nM-1000 nM)”. With `Cc1csc(-c2nc(NC3CCC(F)(F)CC3)cc(N3CCN(C(C)C)CC3)n2)n1` [IN10864-031-P1], the “SC100 (μM)” value is reported as “+++ (+++ means <200 nM)”.

Take `Cc1csc(-c2nc(NC3CCC(F)(F)CC3)cc(N3CCC(F)CC3)n2)n1` [IN10864-33.P1]: the “SC100 (μM)” value is “++ (++ means 200 nM-1000 nM)”. On the same count and under the same terms, in the case of `Cc1csc(-c2nc(NC3CCC(F)(F)CC3)cc(N3CCCOCC3)n2)n1` [IN10864-034.P1] it was “+++ (+++ means <200 nM)”; in that of `Cc1csc(-c2nc(NC3CCC(F)(F)CC3)cc(N3CCOC(C)(C)C3)n2)n1` [IN10864-043-P1], “+++ (+++ means <200 nM)”; in that of `COCC1CN(c2cc(NC3CCC(F)(F)CC3)nc(-c3nc(C)cs3)n2)CCN1C` (stereo not shown) [IN10864-060-P1], “+++ (+++ means <200 nM)”.

For `Cc1csc(-c2nc(NC3CCC(F)(F)CC3)cc(N3CCN(C)C(CO)C3)n2)n1` (stereo not shown) [IN10864-066-P1], the “SC100 (μM)” value is “++ (++ means 200 nM-1000 nM)”. The same measure, in the same setting: under `COC1CCCN(c2cc(NC3CCC(F)(F)CC3)nc(-c3nc(C)cs3)n2)C1` (stereo not shown) [IN10876-013-P1] stands “++ (++ means 200 nM-1000 nM)”; under `CC(=O)c1cc(NC2CCC(F)(F)CC2)nc(-n2ccc(C)n2)n1` [IN10876-041-P2], “+ (+ means >1 uM)”. On the same count and under the same terms, in the case of `Cc1ccn(-c2nc(NC3CCC(F)(F)CC3)cc(C(C)O)n2)n1` (stereo not shown) [IN10876-051-P1] it was “+ (+ means >1 uM)”. For the compound `CCOC(C)c1cc(NC2CCC(F)(F)CC2)nc(-n2ccc(C)n2)n1` (stereo not shown) [IN10876-061-P1, N-(4,4-difluorocyclohexyl)-6-(1-ethoxyethyl)-2-(3-methyl-1H-pyrazol-1-yl)pyrimidin-4-amine], the “SC100 (μM)” value was “+ (+ means >1 uM)”. On the same count and under the same terms, under `Cc1ccn(-c2nc(NC3CCC(F)(F)CC3)cc(C(C)(F)F)n2)n1` [IN10876-069-P1, N-(4,4-difluorocyclohexyl)-6-(1,1-difluoroethyl)-2-(3-methyl-1H-pyrazol-1-yl)pyrimidin-4-amine] stands “+ (+ means >1 uM)”; under `Cc1ccn(-c2nc(NC3CCC(F)(F)CC3)cc(C(C)F)n2)n1` (stereo not shown) [IN10876-080-P1, N-(4,4-difluorocyclohexyl)-6-(1-fluoroethyl)-2-(3-methyl-1H-pyrazol-1-yl)pyrimidin-4-amine], “+ (+ means >1 uM)”; under `Cc1csc(-c2nc(NC3CCC(F)(F)CC3)cc(C(C)(F)F)n2)n1` [IN10876-082-P1, N-(4,4-difluorocyclohexyl)-6-(1,1-difluoroethyl)-2-(4-methylthiazol-2-yl)pyrimidin-4-amine], “+ (+ means >1 uM)”.

As to `Cc1csc(-c2nc(NC3CCC(F)(F)CC3)cc(C(C)F)n2)n1` (stereo not shown) [IN10876-092-P1, N-(4,4-difluorocyclohexyl)-6-(1-fluoroethyl)-2-(4-methylthiazol-2-yl)pyrimidin-4-amine], the “SC100 (μM)” value is reported as “++ (++ means 200 nM-1000 nM)”. Turning to `Cc1csc(-c2nc(NC3CCC(F)(F)CC3)cc(N3CCN(C)CC3)n2)n1` [IN10880-014-P1], the “SC100 (μM)” value is on record as “++ (++ means 200 nM-1000 nM)”. Consider `CCC1CN(c2cc(NC3CCC(F)(F)CC3)nc(-c3nc(C)cs3)n2)CCO1` (stereo not shown) [IN10880-018-P1], for which the “SC100 (μM)” value is “++ (++ means 200 nM-1000 nM)”. On the same count and under the same terms, under `Cc1csc(-c2nc(C#N)cc(NC3CCC(F)(F)CC3)n2)n1` [IN10880-029-P1] stands “+ (+ means >1 uM)”; under `CC(=O)NC1CCN(c2cc(NC3CCC(F)(F)CC3)nc(-c3nc(C)cs3)n2)CC1` [IN10880-032-P1], “++ (++ means 200 nM-1000 nM)”; under `Cc1csc(-c2nc(NC3CCC(F)(F)CC3)cc(N3CCOC(CNC(=O)OC(C)(C)C)C3)n2)n1` (stereo not shown) [IN10880-033-P1], “++ (++ means 200 nM-1000 nM)”. Same read-out and setting: under `Cc1csc(-c2nc(NC3CCC(F)(F)CC3)cc(C(C)O)n2)n1` (stereo not shown) [IN10880-035-P1, 1-(6-((4,4-difluorocyclohexyl)amino)-2-(4-methylthiazol-2-yl)pyrimidin-4-yl) ethan-1-ol] stands “++ (++ means 200 nM-1000 nM)”; under `Cc1ccn(-c2nc(NCC3CCCO3)cc(C(C)O)n2)n1` (stereo not shown) [IN10880-055-P1], “+ (+ means >1 uM)”. Still for that read-out and setting: in the case of `Cc1ccn(-c2nc(NC(C)C)cc(C(C)O)n2)n1` (stereo not shown) [IN10880-056-P1] it was “+ (+ means >1 uM)”; in that of `Cc1ccn(-c2nc(NCC3CCOC3)cc(C(C)O)n2)n1` (stereo not shown) [IN10880-058-P1], “+ (+ means >1 uM)”; in that of `Cc1ccn(-c2nc(NC3CCCCC3C)cc(C(C)O)n2)n1` (stereo not shown) [IN10880-059-P1], “+ (+ means >1 uM)”. As for `Cc1ccn(-c2nc(NC3CCCC(C(F)(F)F)C3)cc(C(C)O)n2)n1` (stereo not shown) [IN10880-062-P1], the “SC100 (μM)” value is on record as “+ (+ means >1 uM)”.

Take `Cc1ccn(-c2nc(C(C)O)cc(N(C)C3CCCCC3)n2)n1` (stereo not shown) [IN10880-064-P1]: the “SC100 (μM)” value was “+ (+ means >1 uM)”. On the same count and under the same terms, in the case of `Cc1ccn(-c2nc(NC(C)(C)C)cc(C(C)O)n2)n1` (stereo not shown) [IN10880-065-P1] it was “+ (+ means >1 uM)”; in that of `Cc1csc(-c2nc(C(C)O)cc(N(C)C3CCCCC3)n2)n1` (stereo not shown) [IN10880-084-P1], “+ (+ means >1 uM)”; in that of `Cc1csc(-c2nc(NC3CCCC(C(F)(F)F)C3)cc(C(C)O)n2)n1` (stereo not shown) [IN10880-085-P1], “+ (+ means >1 uM)”. Still for that read-out and setting: in the case of `Cc1csc(-c2nc(NC3CCCCC3)cc(C(C)O)n2)n1` (stereo not shown) [IN10880-093-P1] it was “++ (++ means 200 nM-1000 nM)”; in that of `Cc1csc(-c2nc(NC3CCC(F)(F)CC3)cc(N3CCC(N(C)C)CC3)n2)n1` [IN10881-020.P1], “+++ (+++ means <200 nM)”; in that of `Cc1csc(-c2nc(NC3CCC(F)(F)CC3)cc(N3CCCCC3)n2)n1` [IN10881-021.P1], “++ (++ means 200 nM-1000 nM)”. With `Cc1csc(-c2nc(NC3CCC(F)(F)CC3)cc(N3CCCC(O)C3)n2)n1` (stereo not shown) [IN10881-023-P2], the “SC100 (μM)” value is given as “++ (++ means 200 nM-1000 nM)”. Same read-out and setting: in the case of `Cc1csc(-c2nc(NC3CCC(F)(F)CC3)cc(N3CCOC(CO)C3)n2)n1` (stereo not shown) [IN10881-025-P1] it was “++ (++ means 200 nM-1000 nM)”. Same read-out and setting: under `Cc1csc(-c2nc(NC3CCC(F)(F)CC3)cc(N3CCOCC3CO)n2)n1` (stereo not shown) [IN10881-027-P1] stands “++ (++ means 200 nM-1000 nM)”; under `CC(=O)c1cc(NC2CCC(F)(F)CC2)nc(-n2nc(C)cc2C)n1` [IN10881-040-P1, 1-(6-((4,4-difluorocyclohexyl)amino)-2-(3,5-dimethyl-1H-pyrazol-1-yl)pyrimidin-4-yl)ethan-1-one], “+ (+ means >1 uM)”; under `Cc1ccn(-c2nc(C(C)O)cc(N3CCCC4CCCCC43)n2)n1` (stereo not shown) [IN10881-054-P1], “+ (+ means >1 uM)”. With `Cc1ccn(-c2nc(C(C)O)cc(N3CCCCCC3)n2)n1` (stereo not shown) [IN10881-058-P1], the “SC100 (μM)” value was “+ (+ means >1 uM)”. With `Cc1ccn(-c2nc(C(C)O)cc(N(C)C3CCCCC3C)n2)n1` (stereo not shown) [IN10881-059-P1], the “SC100 (μM)” value was “+ (+ means >1 uM)”. On the same count and under the same terms, in the case of `Cc1ccn(-c2nc(NC3C(C)CCCC3C)cc(C(C)O)n2)n1` (stereo not shown) [IN10881-060-P1] it was “+ (+ means >1 uM)”; in that of `Cc1csc(-c2nc(NC3CCC(F)(F)CC3)cc(N(C)C3CC3)n2)n1` [IN10881-090-P1], “+ (+ means >1 uM)”. Still for that read-out and setting: in the case of `CCN(CC)CC1CN(c2cc(NC3CCC(F)(F)CC3)nc(-c3nc(C)cs3)n2)CCO1` (stereo not shown) [IN10881-092-P1] it was “+++ (+++ means <200 nM)”.

`Cc1cc(C)n(-c2nc(NC3CCC(F)(F)CC3)nc(N3CCOCC3)n2)n1` [IN10881-098-P1, N-(4,4-difluorocyclohexyl)-4-(3,5-dimethyl-1H-pyrazol-1-yl)-6-morpholino-1,3,5-triazin-2-amine]: the “SC100 (μM)” value was “+ (+ means >1 uM)”. In the case of `COCC1COCCN1c1cc(NC2CCC(F)(F)CC2)nc(-c2nc(C)cs2)n1` (stereo not shown) [IN10881-099-P1], the “SC100 (μM)” value was “+ (+ means >1 uM)”.

For `Cc1csc(-c2nc(NC3CCC(F)(F)CC3)cc(N3CCCC3)n2)n1` [IN10882-014-P1], the “SC100 (μM)” value is “+ (+ means >1 uM)”.
